This is an account of results in US10624949B1, “Methods for treating diseases related to the wnt pathway” (priority 2015, dated 2020).

One assay deals with wild-type RVFV. In kind it is cell-based, Rift Valley fever virus.
A further assay has as its system LCV. The format is cell-based, La Crosse virus.
A further assay has as its system VacV. The format is cell-based, Vaccinia virus.
Assay [1] relates to VSV. In kind it is cell-based, Vesicular Stomatitis virus.
Assay [2] concerns Wnt3A-induced β-catenin luc reporter expression. In kind it is cell-based, human.
In the next assay the test system is CEV. The format is cell-based, California encephalitis virus.
For assay [3], the system named is RVFV MP12-induced β-catenin transcriptional activity. The format is cell-based, human.
The test system of assay [4] is RVFV MP12-GFP. The format is cell-based, Rift Valley fever virus.
For a further assay, the system named is RVFV MP12. The format is cell-based, Rift Valley fever virus.
The test system of assay [5] is RVFV MP12-GFP. In words: microbe, parasite or virus in culture. In kind it is cell-based, Rift Valley fever virus. Conditions: for inhibition at 10 µM: Rift Valley fever virus, Hepatocyte, read-out: inhibition of RVFV MP12-GFP infection.
Assay [6] deals with cellular models of cancer survival. Conditions: preclinical studies; cited from earlier work.
Assay [7] deals with wild-type RVFV strain ZH-501. In kind it is cell-based, Rift Valley fever virus.
The subject of assay [8] is RVFV MP12-GFP. The format is cell-based, Rift Valley fever virus. The source holds these as a separate data set.
The subject of assay [9] is VSV. In kind it is cell-based, Vesicular Stomatitis virus. The source holds these as a separate data set.

“Also recorded” adds a separate entry of the source. Bounds are passed on as bounds.

As for `O=C1Nc2ccccc2C12OCC1(CO2)COC2(OC1)C(=O)Nc1ccccc12` (stereo not drawn) [JW67, trispiro[3H-indole-3,2′-[1,3]dioxane-5′,5″-[1,3]dioxane-2″,3′″-[3H]indole]-2,2′″(1H,1′″H)-dione], the “wild-type RVFV viral titers by plaque assay” value in the assay on wild-type RVFV is recorded as “significant decrease; also recorded: significantly reduced”. In addition, the “LCV infection / viral titers by plaque assay” value with LCV is given as “significantly reduced”. Moreover, the “infection of VacV (relative percent infection)” value in the assay with VacV is “none of the inhibitors that stabilized the DC affected”. In addition, the “infection of VSV (relative percent infection)” value in the assay with VSV [1] was “none of the inhibitors that stabilized the DC affected”. Moreover, the “Wnt3A-induced β-catenin luc reporter activity” value in assay [2] is given as “inhibited”. In addition, the “CEV infection / viral titers by plaque assay” value in the assay with CEV is reported as “significantly reduced”. Besides, the “RVFV MP12-induced β-catenin reporter activity” value in assay [3] is “inhibited”. Also, in the assay with RVFV MP12-GFP [4], the “RVFV MP12-GFP infection, inhibitor 1 hour prior to and during initial infection, removed after 3 hours (pre-treat)” value is listed as “little to no effect”; the “RVFV MP12-GFP infection, inhibitor added 1 hpi (post-treat)” value is listed as “significantly inhibit”. Besides, the “RVFV MP12 viral titers by plaque assay” value with RVFV MP12 is “significant decrease”. Besides, the inhibition (commonly the drop in the measured response relative to a control, in per cent) at 10 µM in the assay on RVFV MP12-GFP [5] was above 50%.

Turning to `Cc1cc([N+](=O)[O-])ccc1NS(=O)(=O)c1cc(Cl)ccc1Cl` [FH535, 2,5-dichloro-N-(2-methyl-4-nitrophenyl)benzenesulfonamide], the “infection of VacV (relative percent infection)” value in the assay with VacV was “did not diminish”. Moreover, in the assay with VSV [1], the “infection of VSV (relative percent infection)” value is “did not diminish”. Further, the “Wnt3A-induced β-catenin luc reporter activity” value in [2] is given as “inhibited”. Moreover, the “RVFV MP12-induced β-catenin reporter activity” value in [3] is recorded as “inhibited”. In addition, in the assay on RVFV MP12-GFP [4], the “RVFV MP12-GFP infection, inhibitor 1 hour prior to and during initial infection, removed after 3 hours (pre-treat)” value was “little to no effect”; the “RVFV MP12-GFP infection, inhibitor added 1 hpi (post-treat)” value was “significantly inhibit”. Moreover, in the assay with RVFV MP12-GFP [5], the “infection of RVFV MP12-GFP (relative percent infection)” value is “reduced”.

Take `CN(C)c1ccc(/C=C/c2c(F)cccc2F)cc1` [Wnt XII, (E)-4-(2,6-difluorostyryl)-N,N-dimethylaniline]: in the assay with VacV, the “infection of VacV (relative percent infection)” value is “did not diminish”. The “infection of VSV (relative percent infection)” value in the assay on VSV [1] is reported as “did not diminish”. The “Wnt3A-induced β-catenin luc reporter activity” value in assay [2] is given as “inhibited”. The “RVFV MP12-induced β-catenin reporter activity” value in assay [3] is recorded as “inhibited”. For the same molecule, in the assay on RVFV MP12-GFP [4], the “RVFV MP12-GFP infection, inhibitor 1 hour prior to and during initial infection, removed after 3 hours (pre-treat)” value is recorded as “little to no effect”; the “RVFV MP12-GFP infection, inhibitor added 1 hpi (post-treat)” value was “significantly inhibit”. Also, in the assay with RVFV MP12-GFP [5], the “infection of RVFV MP12-GFP (relative percent infection)” value is recorded as “reduced”.

With `CO/C1=C\C(C)=C\[C@@H](C)[C@@H](O)[C@@H](C)C/C(C)=C/C=C/[C@H](OC)[C@@H]([C@@H](C)[C@@H](O)[C@H](C)[C@@]2(O)C[C@@H](O)[C@H](C)[C@@H](C(C)C)O2)OC1=O` [BAF], the “RVFV MP12-induced β-catenin reporter activity” value in assay [3] is reported as “blocked”.

`Cc1cc(/C=C2\SC(=O)N(c3ccccc3)C2=O)c(C)n1-c1cccnc1` [iCRT-14, (5Z)-5-[(2,5-dimethyl-1-pyridin-3-ylpyrrol-3-yl)methylidene]-3-phenyl-1,3-thiazolidine-2,4-dione]: the “wild-type RVFV viral titers by plaque assay” value with wild-type RVFV is recorded as “significant decrease”. Also, the “infection of VacV (relative percent infection)” value in the assay with VacV is reported as “did not diminish”. Moreover, in the assay with VSV [1], the “infection of VSV (relative percent infection)” value is given as “did not diminish”. Further, the “Wnt3A-induced β-catenin luc reporter activity” value in assay [2] is “inhibited”. Moreover, the “RVFV MP12-induced β-catenin reporter activity” value in [3] is “inhibited”. In addition, in the assay with RVFV MP12-GFP [4], the “RVFV MP12-GFP infection, inhibitor 1 hour prior to and during initial infection, removed after 3 hours (pre-treat)” value is given as “little to no effect”; the “RVFV MP12-GFP infection, inhibitor added 1 hpi (post-treat)” value was “significantly inhibit”. Further, in the assay on RVFV MP12, the “RVFV MP12 viral titers by plaque assay” value is “significant decrease”. Moreover, in the assay on RVFV MP12-GFP [5], the “infection of RVFV MP12-GFP (relative percent infection)” value is “reduced”.

As for `O=c1nc(-c2ccc(C(F)(F)F)cc2)[nH]c2c1CSCC2` [XAV939, 2-[4-(trifluoromethyl)phenyl]-1,5,7,8-tetrahydrothiopyrano[4,3-d]pyrimidin-4-one], in assay [6], the “efficacy in cellular models of cancer survival” value is listed as “demonstrated efficacy”.

WIF-1: the “infection of VacV (relative percent infection)” value in the assay with VacV is given as “unable to reduce infection”. Further, the “infection of VSV (relative percent infection)” value with VSV [1] is listed as “unable to reduce infection”. In assay [2], the “Wnt3A-induced β-catenin luc reporter activity” value is “dose-dependent reduction”. Besides, in assay [3], the “RVFV MP12-induced β-catenin reporter activity” value was “no effect”. Moreover, in the assay on RVFV MP12-GFP [4], the “RVFV MP12-GFP infection, inhibitor 1 hour prior to and during initial infection, removed after 3 hours (pre-treat)” value is “no effect”; the “RVFV MP12-GFP infection, inhibitor added 1 hpi (post-treat)” value was “no effect”. For the same molecule, the “infection of RVFV MP12-GFP (relative percent infection)” value in the assay on RVFV MP12-GFP [5] is “unable to reduce infection”.

With `O=C(Nc1cccc2cccnc12)c1ccc(N2C(=O)[C@@H]3[C@H](C2=O)[C@@H]2C=C[C@H]3C2)cc1` [Endo-IWR-1, 4-[(3aR,4S,7R,7aS)-1,3-dioxo-1,3,3a,4,7,7a-hexahydro-2H-4,7-methanoisoindol-2-yl]-N-(quinolin-8-yl)benzamide], in assay [2], the “Wnt3A-induced β-catenin luc reporter activity” value is listed as “inhibited”. Further, in assay [3], the “RVFV MP12-induced β-catenin reporter activity” value is reported as “inhibited”. Moreover, in the assay on RVFV MP12-GFP [4], the “RVFV MP12-GFP infection, inhibitor 1 hour prior to and during initial infection, removed after 3 hours (pre-treat)” value was “little to no effect”; the “RVFV MP12-GFP infection, inhibitor added 1 hpi (post-treat)” value is given as “significantly inhibit”. The inhibition at 10 µM in the assay with RVFV MP12-GFP [5] was above 50%.

For `COc1ccc(C2(CNC(=O)c3ccc(NC(=O)c4ccco4)cc3)CCOCC2)cc1` [JW55, N-[4-[[4-(4-methoxyphenyl)oxan-4-yl]methylcarbamoyl]phenyl]furan-2-carboxamide], the “efficacy in cellular models of cancer survival” value in assay [6] is given as “demonstrated efficacy”.

B1: DKK-1 (protein, UniProt O94907 32-266, looked up)
Dickkopf-related protein 1: TLNSVLNSNAIKNLPPPLGGAAGHPGSAVSAAPGILYPGGNKYQTIDNYQPYPCAEDEECGTDEYCASPTRGGDAGVQICLACRKRRKRCMRHAMCCPGNYCKNGICVSSDQNHFRGEIEETITESFGNDHSTLDGYSRRTTLSSKMYHTKGQEGSVCLRSSDCASGLCCARHFWSKICKPVLKEGQVCTKHRRKGSHGLEIFQRCYCGEGLSCRIQKDHHQASNSSRLHTCQRH
Regarding B1, the “infection of VacV (relative percent infection)” value in the assay with VacV is “unable to reduce infection”. The “infection of VSV (relative percent infection)” value in the assay on VSV [1] was “unable to reduce infection”. For the same molecule, the “Wnt3A-induced β-catenin luc reporter activity” value in assay [2] was “dose-dependent reduction”. Moreover, the “RVFV MP12-induced β-catenin reporter activity” value in assay [3] is reported as “no effect”. Besides, in the assay with RVFV MP12-GFP [4], the “RVFV MP12-GFP infection, inhibitor 1 hour prior to and during initial infection, removed after 3 hours (pre-treat)” value was “no effect”; the “RVFV MP12-GFP infection, inhibitor added 1 hpi (post-treat)” value is recorded as “no effect”. Besides, the “infection of RVFV MP12-GFP (relative percent infection)” value in the assay with RVFV MP12-GFP [5] is given as “unable to reduce infection”.

B2: Wnt3A (protein, UniProt P56704 19-352, looked up)
Protein Wnt-3a: SYPIWWSLAVGPQYSSLGSQPILCASIPGLVPKQLRFCRNYVEIMPSVAEGIKIGIQECQHQFRGRRWNCTTVHDSLAIFGPVLDKATRESAFVHAIASAGVAFAVTRSCAEGTAAICGCSSRHQGSPGKGWKWGGCSEDIEFGGMVSREFADARENRPDARSAMNRHNNEAGRQAIASHMHLKCKCHGLSGSCEVKTCWWSQPDFRAIGDFLKDKYDSASEMVVEKHRESRGWVETLRPRYTYFKVPTERDLVYYEASPNFCEPNPETGSFGTRDRTCNVSSHGIDGCDLLCCGRGHNARAERRREKCRCVFHWCCYVSCQECTRVYDVHTCK
On to B2, for which the “wild-type RVFV infection (number of plaques)” value in assay [7] is given as “enhanced”. Besides, in the assay with RVFV MP12-GFP [8], the “RVFV MP12-GFP viral infection after Wnt3A pre-treatment” value is recorded as “significantly enhanced” and the “increase in RVFV MP12-GFP infection” value is given as “greater than 4.5 fold”. Further, the “VSV infection after Wnt3A pre-treatment” value in the assay on VSV [9] is on record as “remained unchanged”.
